Reference: PubChem BioAssay AID1845212 (Molecular Pharmacology Branch, DTP, NCI, 2023)

Tested on: NCI-H719 tumor spheroids, viability
Assay: Anticancer human tumor NCI-H719 cell line growth inhibition;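 note: spheroids exposed to compounds for seven days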;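 for viability, T/C: percent viability relative to DMSO vehicle control as 100%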
Conditions: spheroids with HUVEC and MSC; for IC50: curve of first compound; for viability, T/C: stronger effect = lower value
In short: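 Complex tumor spheroids combined malignant cells with endothelial cells and mesenchymal stem cells. DNA-damaging drugs and DNA repair inhibitors were tested alone and in combination, at half-log dilutions down from clinical Cmax (top 10 microM if Cmax unknown), 0.25% DMSO final.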

Work on CNCc1ccc(-c2cc(-c3nc(-c4ccc(S(=O)(=O)C(C)C)cc4)cnc3N)on2)cc1 + Cn1nnc2c(C(N)=O)ncn2c1=O yielded an IC50 (second compound 1 µM) of 131 nM, an IC50 (second compound 3.16 µM) of 95.4 nM and an IC50 (second compound 10 µM) of 162 nM. It also gave an IC50 (second compound 31.6 µM) of 94.4 nM, an IC50 (second compound 100 µM) of 33.6 nM and a viability, T/C (second compound 1 µM, first compound 0.00949 µM) of 88.2%. The viability, T/C (second compound 1 µM, first compound 0.03 µM) was 95%, the viability, T/C (second compound 1 µM, first compound 0.0949 µM) was 43.5% and the viability, T/C (second compound 1 µM, first compound 0.3 µM) was 39%. For the same compound, the viability, T/C (second compound 1 µM, first compound 0.949 µM) was 8.27%, the viability, T/C (second compound 1 µM, first compound 3 µM) was 0.15% and the viability, T/C (second compound 3.16 µM, first compound 0.00949 µM) was 97.6%. For the same compound, the viability, T/C (second compound 3.16 µM, first compound 0.03 µM) was 94.2%, the viability, T/C (second compound 3.16 µM, first compound 0.0949 µM) was 46.7% and the viability, T/C (second compound 3.16 µM, first compound 0.3 µM) was 18.9%. For the same compound, the viability, T/C (second compound 3.16 µM, first compound 0.949 µM) was 9.22%, the viability, T/C (second compound 3.16 µM, first compound 3 µM) was 0.14% and the viability, T/C (second compound 10 µM, first compound 0.00949 µM) was 101%. The viability, T/C (second compound 10 µM, first compound 0.03 µM) was 93.7%, the viability, T/C (second compound 10 µM, first compound 0.0949 µM) was 80.2% and the viability, T/C (second compound 10 µM, first compound 0.3 µM) was 15%. It also gave a viability, T/C (second compound 10 µM, first compound 0.949 µM) of 8.28%, a viability, T/C (second compound 10 µM, first compound 3 µM) of 18.1% and a viability, T/C (second compound 31.6 µM, first compound 0.00949 µM) of 105%. The viability, T/C (second compound 31.6 µM, first compound 0.03 µM) was 106%, the viability, T/C (second compound 31.6 µM, first compound 0.0949 µM) was 49.8% and the viability, T/C (second compound 31.6 µM, first compound 0.3 µM) was 15.7%. The viability, T/C (second compound 31.6 µM, first compound 0.949 µM) was 8.28%, the viability, T/C (second compound 31.6 µM, first compound 3 µM) was 37.8% and the viability, T/C (second compound 100 µM, first compound 0.00949 µM) was 80%. For the same compound, the viability, T/C (second compound 100 µM, first compound 0.03 µM) was 52.8%, the viability, T/C (second compound 100 µM, first compound 0.0949 µM) was 24.4% and the viability, T/C (second compound 100 µM, first compound 0.3 µM) was 9.66%. It also gave a viability, T/C (second compound 100 µM, first compound 0.949 µM) of 39.1% and a viability, T/C (second compound 100 µM, first compound 3 µM) of 0.23%.

Work on CC1COCCN1c1cc(-c2ccnn2C)c2ccnc(-c3ccn[nH]3)c2n1 (stereo not given) + Cn1nnc2c(C(N)=O)ncn2c1=O yielded an IC50 (second compound 1 µM) of 81.1 nM, an IC50 (second compound 3.16 µM) of 60.2 nM and an IC50 (second compound 10 µM) of 63.8 nM. For the same compound, the IC50 (second compound 31.6 µM) was 38.9 nM, the IC50 (second compound 100 µM) was less than 31.6 nM and the viability, T/C (second compound 1 µM, first compound 0.0316 µM) was 60.4%. It also gave a viability, T/C (second compound 1 µM, first compound 0.1 µM) of 47.4%, a viability, T/C (second compound 1 µM, first compound 0.316 µM) of 27.2% and a viability, T/C (second compound 1 µM, first compound 1 µM) of 13.5%. The viability, T/C (second compound 1 µM, first compound 3.16 µM) was 7.33%, the viability, T/C (second compound 1 µM, first compound 10 µM) was 9.3% and the viability, T/C (second compound 3.16 µM, first compound 0.0316 µM) was 61.2%. The viability, T/C (second compound 3.16 µM, first compound 0.1 µM) was 40.7%, the viability, T/C (second compound 3.16 µM, first compound 0.316 µM) was 23.1% and the viability, T/C (second compound 3.16 µM, first compound 1 µM) was 10.2%. The viability, T/C (second compound 3.16 µM, first compound 3.16 µM) was 7.62%, the viability, T/C (second compound 3.16 µM, first compound 10 µM) was 9.51% and the viability, T/C (second compound 10 µM, first compound 0.0316 µM) was 63.1%. For the same compound, the viability, T/C (second compound 10 µM, first compound 0.1 µM) was 41%, the viability, T/C (second compound 10 µM, first compound 0.316 µM) was 23.3% and the viability, T/C (second compound 10 µM, first compound 1 µM) was 9.97%. For the same compound, the viability, T/C (second compound 10 µM, first compound 3.16 µM) was 7.59%, the viability, T/C (second compound 10 µM, first compound 10 µM) was 8.83% and the viability, T/C (second compound 31.6 µM, first compound 0.0316 µM) was 54.5%. It also gave a viability, T/C (second compound 31.6 µM, first compound 0.1 µM) of 30.4%, a viability, T/C (second compound 31.6 µM, first compound 0.316 µM) of 18.1% and a viability, T/C (second compound 31.6 µM, first compound 1 µM) of 8.01%. For the same compound, the viability, T/C (second compound 31.6 µM, first compound 3.16 µM) was 6.53%, the viability, T/C (second compound 31.6 µM, first compound 10 µM) was 9.03% and the viability, T/C (second compound 100 µM, first compound 0.0316 µM) was 26.8%. For the same compound, the viability, T/C (second compound 100 µM, first compound 0.1 µM) was 14.7%, the viability, T/C (second compound 100 µM, first compound 0.316 µM) was 9.58% and the viability, T/C (second compound 100 µM, first compound 1 µM) was 5.42%. For the same compound, the viability, T/C (second compound 100 µM, first compound 3.16 µM) was 17.8% and the viability, T/C (second compound 100 µM, first compound 10 µM) was 7.51%.
